We go through four compounds from EP0394983A2, “Anthracycline derivatives with cytostatic activity” (priority 1989, dated 1990).

Series [1] in a line: Stability under weakly acidic conditions (qualitative statement). Format: physicochemical. To be noted: unter schwach sauren Bedingungen.
For another series, the system named is L1210 Leukämiezellen. The experiment in a line: Colony formation of L1210 leukaemia cells in soft agar (cytotoxicity in vitro). To be noted: Mus musculus. The format is cell-based, Maus. An excerpt: Die zytostatische Wirksamkeit der erfindungsgemäßen Verbindungen wurde anhand von L1210 Leukämiezellen der Maus getestet. Hierzu wurde die Koloniebildung von L1210 Leukämiezellen in Agarplatten herangezogen. Diese Methode dient zum Nachweis des Einflusses der Testsubstanzen auf das Wachstumsverhalten der Zellen über 1 Stunde oder über mehrere Generationen. Bei einer Zellzykluszeit von 10-12 Stunden werden dabei in der Testzeit von 7 Tagen etwa 14 aufeinanderfolgende Generationen beobachtet. Die erfindungsgemäßen zytostatisch wirksamen Substanzen bewirken in diesem Test eine Reduktion der zu beobachtenden Koloniezahl gegenüber einer unbehandelten Kontrollprobe.
Verfahrensweise zur Ermittlung der Koloniebildung von L1210 Leukämiezellen in Soft-Agar
500 Leukämiezellen pro Platte wurden mit unterschiedlichen Konzentrationen der Testsubstanz 1 Stunde bei 37°C inkubiert. Anschließend wurden die Zellen zweimal mit McCoy5A-Medium gewaschen und schließlich in Petrischalen nach Zugabe von 0,3 % Agar ausgegossen. Kontrollen wurden lediglich mit frischem Medium inkubiert. Anstelle der einstündigen Inkubation wurden in manchen Fällen unterschiedliche Konzentrationen und Testsubstanzen der oberen Agarschicht zugemischt, um so eine kontinuierliche Exposition der Zellen über die gesamte Inkubationszeit zu erreichen. Nach Erstarren des Agars wurden die Platten im Brutschrank 7 Tage bei 37°C inkubiert (5 Vol.-% CO₂, 95 % relative Luftfeuchtigkeit). Anschließend wurde die Zahl der entstandenen Kolonien mit einem Durchmesser von mehr als 60 µm gezählt. Die Ergebnisse wurden angegeben als Koloniezahl in behandelten Agarplatten in Prozent der unbehandelten Kontrolle. Aus der so erhalte nen Dosiswirkungskurve wurde die IC₅₀ als Maß für die Wirksamkeit der Substanz ermittelt. Die Ergebnisse für die hier beschriebenen Verbindungen im Vergleich zu Adriamycin sind in Tabelle 1 zusammengefaßt.

The mark [2] stands for this setting: L1210, 168 h, continuous exposure over the whole incubation time (7 days, 37°C), substance mixed into upper agar layer, colony count vs untreated control, read-out: Dauerinku-bation IC50.
Where [3] appears, read: L1210, 1 h incubation at 37°C, cells washed, then 7 days in agar, colony count vs untreated control, read-out: 1 h-Inku-bation IC50.

Values after ≈ are worked out from the molar mass of the structure shown. Like-named read-outs stand apart in the source and are kept apart here.

With `CC[C@@]1(O)C[C@H](O[C@H]2C[C@H](N(C)CCCl)[C@H](O)[C@H](C)O2)c2c(O)c3c(c(O)c2[C@H]1O)C(=O)c1cccc(O)c1C3=O` [Verbindung 1, 7-0-(3′-N-Chlorethyl-3′-N-methyl-α-L-daunosaminyl)-β-rhodomycinon], the Stabilität result in series [1] was “relativ stabil”. For the same compound, the IC50 in the series on L1210 Leukämiezellen (L1210, 168 h, read-out: Dauerinku-bation IC50) worked out at 0.03 µg/mL (≈ 0.0507 µM); in the series on L1210 Leukämiezellen (L1210, read-out: 1 h-Inku-bation IC50), 0.11 µg/mL (≈ 0.186 µM).

Take `CC[C@@]1(O)C[C@H](O[C@H]2C[C@H](N(C)CCN(C)C)[C@H](O)[C@H](C)O2)c2c(O)c3c(c(O)c2[C@H]1O)C(=O)c1cccc(O)c1C3=O` [Verbindung 2, 7-0-(3′-N-Dimethylaminoethyl-3′-N-methyl-α-L-,daunosaminyl)-β-rhodomycinon]: the results for the IC50 in the series with L1210 Leukämiezellen (setting [2]) and in the series with L1210 Leukämiezellen (setting [3]) were 0.033 µg/mL (≈ 0.0549 µM) and 0.12 µg/mL (≈ 0.2 µM), respectively.

On to `CC[C@@]1(O)C[C@H](O[C@H]2C[C@H](N(C)CCN(C)CCNC)[C@H](O)[C@H](C)O2)c2c(O)c3c(c(O)c2[C@H]1O)C(=O)c1cccc(O)c1C3=O` [Verbindung 3, 7-0-(3′-N-(N,N′-Dimethyl-ethylendiaminoethyl)-3′-N-methyl-α-L-daunosaminyl)-β-rhodomycinon], for which the figures for the IC50 in the series with L1210 Leukämiezellen (setting [2]) and with L1210 Leukämiezellen (setting [3]) were 0.1 µg/mL (≈ 0.155 µM) and 0.6 µg/mL (≈ 0.932 µM), respectively.

For `CC[C@@]1(O)C[C@H](O[C@H]2C[C@H](N(C)CCNCCc3c[nH]cn3)[C@H](O)[C@H](C)O2)c2c(O)c3c(c(O)c2[C@H]1O)C(=O)c1cccc(O)c1C3=O` [Verbindung 4, 7-0-(3′-N-Histaminoethyl-3′-N-methyl-α-L-daunosaminyl)-β-rhodomycinon], the IC50 amounted to 0.4 µg/mL (≈ 0.6 µM) in the series with L1210 Leukämiezellen (setting [2]) and 1.2 µg/mL (≈ 1.8 µM) in the series on L1210 Leukämiezellen (setting [3]).

In general, IC50 refers to the concentration at which inhibition is half-maximal.
